Values after ≈ are worked out from the molar mass of the structure shown. Like-named read-outs stand apart in the source and are kept apart here.
Tests used:
AECO001 (ATCC25922) = test: MIC broth microdilution, AECO001; format: cell-based, E. coli; settings: Escherichia coli
Procedure, shortened: (§1)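 Growth inhibition was scored by CLSI broth microdilution using cation-adjusted Mueller-Hinton broth and a final inoculum between 3×10^5 and 7×10^5 CFU/mL, incubated 18-24 hours at 35° C.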

[1] = system: AECO063 (ATCC25922 bearing an acrAB mutation); test: microbe, parasite or virus in culture; format: cell-based, E. coli; settings: Escherichia coli, ATCC25922, read-out: MIC AECO063
Procedure, shortened: as §1

APAE001 (ATCC27853) = test: MIC broth microdilution, APAE001; format: cell-based, P. aeruginosa; settings: Pseudomonas aeruginosa, ATCC27853, read-out: MIC APAE001, APAE001 (ATCC27853)
Procedure, shortened: as §1

[2] = system: APAE006 (strain of P. aeruginosa in which all efflux pumps are inactivated); test: microbe, parasite or virus in culture; format: cell-based; settings: Pseudomonas aeruginosa, read-out: MIC APAE006, APAE006, all efflux pumps inactivated
Procedure, shortened: (§2)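 Minimum inhibitory concentrations followed CLSI broth microdilution guidelines: cation-adjusted Mueller-Hinton broth, 2-fold serial drug dilutions, final inoculum 3×10^5–7×10^5 CFU/mL, ambient air at 35° C. for 18-24 hours. Quality-control strains and levofloxacin monitored performance.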

[3] = system: APAE006 in the presence of 8 micrograms per milliliter of polymyxin B nonapeptide; format: cell-based, P. aeruginosa; settings: APAE006 with 8 micrograms per milliliter polymyxin B nonapeptide
Procedure, shortened: as §2

[4] = system: AABA1060 (clinical isolate of Acinetobacter baumannii); test: MIC broth microdilution, AABA1060; format: cell-based; settings: Acinetobacter baumannii, read-out: MIC AABA1060
Procedure, shortened: as §1

[5] = system: ASAU001 (laboratory strain of S. aureus, ATCC29213); test: MIC broth microdilution, ASAU001; format: cell-based; settings: Staphylococcus aureus, ATCC29213, read-out: MIC ASAU001
Procedure, shortened: as §1

[6] = ATCC25922, read-out: MIC AECO001
[7] = ATCC25922, read-out: MIC AECO001 HSA AGP

Compound | MIC (AECO001 (ATCC25922); [6]) [µg/mL] | MIC (AECO001 (ATCC25922); [7]) [µg/mL] | MIC [1] [µg/mL] | MIC (APAE001 (ATCC27853)) [µg/mL] | MIC [2] [µg/mL] | MIC APAE006 + PMBN [3] | MIC [4] [µg/mL] | MIC [5] [µg/mL]
CC(C)/C=C/C#Cc1ccc(C(=O)N[C@H](C(=O)NO)[C@@H](C)N)cc1 [Example 107-5] | < 2 | 2 to 16 (≈ 6.07 to 48.6 µM) | < 2 | 2 to 16 (≈ 6.07 to 48.6 µM) | < 2 | A (MIC's of 2.0 μg/mL or less = A) | < 2 | 2 to 16 (≈ 6.07 to 48.6 µM)
CC(C)/C=C/C#Cc1ccc(C(=O)N[C@H](C(=O)NO)C(C)(C)N)cc1 [Example 107-6] | < 2 | 2 to 16 (≈ 5.82 to 46.6 µM) | < 2 | 2 to 16 (≈ 5.82 to 46.6 µM) | < 2 | A (MIC's of 2.0 μg/mL or less = A) | < 2 | 16 to 64 (≈ 46.6 to 186 µM)
CC(C)(N)[C@H](NC(=O)c1ccc(/C=C/C#Cc2ccc(CNC3CC3)cc2)cc1)C(=O)NO [Example 113-6] | < 2 | < 2 | < 2 | < 2 | < 2 | A (MIC's of 2.0 μg/mL or less = A) | < 2 | 16 to 64 (≈ 35.8 to 143 µM)
C[C@@H](O)[C@H](NC(=O)c1ccc(/C=C/C#Cc2ccc(F)cc2)cc1)C(=O)NO [Example 114-11] | < 2 | 16 to 64 (≈ 41.8 to 167 µM) | < 2 | 16 to 64 (≈ 41.8 to 167 µM) | < 2 | A (MIC's of 2.0 μg/mL or less = A) | 2 to 16 (≈ 5.23 to 41.8 µM) | 16 to 64 (≈ 41.8 to 167 µM)
C[C@@H](O)[C@H](NC(=O)c1ccc(/C=C/C#Cc2ccccc2F)cc1)C(=O)NO [Example 114-12] | < 2 | 2 to 16 (≈ 5.23 to 41.8 µM) | < 2 | 2 to 16 (≈ 5.23 to 41.8 µM) | < 2 | A (MIC's of 2.0 μg/mL or less = A) | < 2 | 16 to 64 (≈ 41.8 to 167 µM)
C[C@@H](O)[C@H](NC(=O)c1ccc(/C=C/C#Cc2cccnc2)cc1)C(=O)NO [Example 114-13] | < 2 | 2 to 16 (≈ 5.47 to 43.8 µM) | < 2 | 2 to 16 (≈ 5.47 to 43.8 µM) | < 2 | A (MIC's of 2.0 μg/mL or less = A) | 2 to 16 (≈ 5.47 to 43.8 µM) | 16 to 64 (≈ 43.8 to 175 µM)
C[C@@H](O)[C@H](NC(=O)c1ccc(/C=C/C#Cc2ccccc2)cc1)C(=O)NO [Example 114-14] | < 2 | 2 to 16 (≈ 5.49 to 43.9 µM) | < 2 | 2 to 16 (≈ 5.49 to 43.9 µM) | < 2 | A (MIC's of 2.0 μg/mL or less = A) | < 2 | 16 to 64 (≈ 43.9 to 176 µM)
C[C@@H](N)[C@H](NC(=O)c1ccc(/C=C/C#CC2CC2)cc1)C(=O)NO [Example 114-15] | 2 to 16 (≈ 6.11 to 48.9 µM) | 16 to 64 (≈ 48.9 to 195 µM) | < 2 | < 2 | < 2 | A (MIC's of 2.0 μg/mL or less = A) | 2 to 16 (≈ 6.11 to 48.9 µM) | 16 to 64 (≈ 48.9 to 195 µM)
CC(C)(N)[C@H](NC(=O)c1ccc(/C=C/C#Cc2ccccc2)cc1)C(=O)NO [Example 114-16] | < 2 | < 2 | < 2 | 2 to 16 (≈ 5.3 to 42.4 µM) | < 2 | A (MIC's of 2.0 μg/mL or less = A) | < 2 | 16 to 64 (≈ 42.4 to 170 µM)
C[C@@H](N)[C@H](NC(=O)c1ccc(/C=C/C#CC2CCCCC2)cc1)C(=O)NO [Example 114-17] | < 2 | 2 to 16 (≈ 5.41 to 43.3 µM) | < 2 | 2 to 16 (≈ 5.41 to 43.3 µM) | < 2 | A (MIC's of 2.0 μg/mL or less = A) | 2 to 16 (≈ 5.41 to 43.3 µM) | 2 to 16 (≈ 5.41 to 43.3 µM)
CC(C)(N)[C@H](NC(=O)c1ccc(/C=C/C#CC2CC2)cc1)C(=O)NO [Example 114-18] | < 2 | 2 to 16 (≈ 5.86 to 46.9 µM) | < 2 | < 2 | < 2 | A (MIC's of 2.0 μg/mL or less = A) | < 2 | 16 to 64 (≈ 46.9 to 187 µM)
